Each structure is given as a SMILES string. Where a name gives a salt, the structure may show the parent alone. Read-outs that look alike come from different tables or passages of the source.

Here are results for 43 molecules from patent US9656971B2, “COMT inhibitors” (Hoffmann-La Roche Inc., priority 2012, dated 2017).

The assay concerns the target T1, Rec. human COMT (Homo sapiens, UniProt P21964).
T1 sequence (P21964 1-271): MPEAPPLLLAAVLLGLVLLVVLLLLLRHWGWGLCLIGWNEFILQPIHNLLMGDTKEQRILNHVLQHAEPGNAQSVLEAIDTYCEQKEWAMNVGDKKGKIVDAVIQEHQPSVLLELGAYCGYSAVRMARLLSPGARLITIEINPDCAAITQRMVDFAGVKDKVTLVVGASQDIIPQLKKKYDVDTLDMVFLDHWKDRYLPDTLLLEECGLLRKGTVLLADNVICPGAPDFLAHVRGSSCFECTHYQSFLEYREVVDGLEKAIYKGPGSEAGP
Briefly: COMT-Fluorescence Assay. It is filed as biochemical. To be noted: rec. human COMT 25 nM, 4-Nitrocatechol-Alexa488 200 nM, SAM 500 nM. As to the method: This intramolecular interaction is disturbed if the 4-Nitrocatechol is methylated. […] This increase of fluorescence intensity can be followed in a kinetic measurement. The slope in the linear range of the kinetic is calculated. An inhibitor compound decreases the slope.
Signal [rfu/min]=(rfu(end-point)−rfu(startpoint))/incubation_time_#2

The mark [1] stands for this setting: COMT-fluorescence assay, read-out: IC50.

For orientation: IC50 means the concentration that gives 50% inhibition. Consider `Cc1cccc(Cc2cc(O)c3nc[nH]c(=O)c3c2)c1` [Example 12, 8-Hydroxy-6-(3-methylbenzyl)quinazolin-4(3H)-one], for which the half-inhibitory concentration (IC50) under setting [1] was found to be 1470 nM.

`O=c1[nH]cnc2c(O)cc(C3CCOCC3)cc12` [Example 69, 8-Hydroxy-6-(tetrahydro-2H-pyran-4-yl)quinazolin-4(3H)-one 2,2,2-trifluoroacetate]: under setting [1], the concentration for half-maximal inhibition (IC50) is 1040 nM.

Under “IC50, COMT-fluorescence assay”, `CN1CCN(c2cc(O)c3nc[nH]c(=O)c3c2)CC1` [Example 190, 8-Hydroxy-6-(4-methyl-piperazin-1-yl)-3H-quinazolin-4-one] came in with a 50% inhibitory concentration (IC50) of 1290 nM.

For `O=c1[nH]cnc2c(O)cc(-c3ccccc3COCCN3CCOCC3)cc12` [Example 236, 8-Hydroxy-6-[2-(2-morpholin-4-yl-ethoxymethyl)-phenyl]-3H-quinazolin-4-one], the IC50 under setting [1] was 20 nM.

Under “IC50, COMT-fluorescence assay”, `CS(=O)(=O)c1ccc(-c2cc(O)c3nc[nH]c(=O)c3c2)c(F)c1` [Example 158, 6-(2-Fluoro-4-(methylsulfonyl)phenyl)-8-hydroxyquinazolin-4(3H)-one] gave a half-maximal inhibitory concentration (IC50) of 30 nM. For the setting “IC50, COMT-fluorescence assay”, `O=c1[nH]cnc2c(O)cc(-c3cccc(Cl)c3)cc12` [Example 149, 6-(3-Chloro-phenyl)-8-hydroxy-3H-quinazolin-4-one] displayed a half-inhibitory concentration (IC50) of 10 nM.

For the molecule `O=C(NCCN1CCOCC1)c1ccc(-c2cc(O)c3nc[nH]c(=O)c3c2)cc1` [Example 172, 4-(8-Hydroxy-4-oxo-3,4-dihydroquinazolin-6-yl)-N-(2-morpholinoethyl)benzamide], the concentration for half-maximal inhibition (IC50) under setting [1] was determined as 20 nM.

Regarding `O=c1[nH]cnc2c(O)cc(Br)cc12` [Example 126, 6-Bromo-8-hydroxyquinazolin-4(3H)-one], the IC50 under setting [1] worked out at 140 nM.

As for `O=c1[nH]cnc2c(O)ccc(Br)c12` [Example 1, 5-Bromo-8-hydroxyquinazolin-4(3H)-one], the IC50 under setting [1] worked out at 500 nM. On to `N#Cc1ccc(Cl)c(-c2cc(O)c3nc[nH]c(=O)c3c2)c1` [Example 27, 4-Chloro-3-(8-hydroxy-4-oxo-3,4-dihydroquinazolin-6-yl)benzonitrile], for which the 50% inhibitory concentration (IC50) under setting [1] was found to be 40 nM. Turning to `CN(C)CCOCc1ccccc1-c1cc(O)c2nc[nH]c(=O)c2c1` [Example 241, 6-(2-((2-(Dimethylamino)ethoxy)methyl)phenyl)-8-hydroxyquinazolin-4(3H)-one], the IC50 under setting [1] was determined as 30 nM. On to `O=c1[nH]cnc2c(O)c(Cl)c(-c3ccc(F)cc3)cc12` [Example 245, 7-Chloro-6-(4-fluorophenyl)-8-hydroxyquinazolin-4(3H)-one], for which, under setting [1], the 50% inhibitory concentration (IC50) is 730 nM.

Consider `O=c1[nH]cnc2c(O)ccc(C(F)(F)F)c12` [Example 42, 8-Hydroxy-5-(trifluoromethyl)quinazolin-4(3H)-one], for which the 50% inhibitory concentration (IC50) under setting [1] was determined as 1030 nM. Regarding `COC(=O)C(C)c1ccc(-c2ccccc2)c(-c2cc(O)c3nc[nH]c(=O)c3c2)c1` (racemic) [Example 32, (rac.) Methyl 2-(2-(8-hydroxy-4-oxo-3,4-dihydroquinazolin-6-yl)biphenyl-4-yl)propanoate], the IC50 under setting [1] came to 2000 nM. Consider `O=c1[nH]cnc2c(O)cc(Cc3ccccc3)cc12` [Example 9, 6-Benzyl-8-hydroxyquinazolin-4(3H)-one], for which, under setting [1], the 50% inhibitory concentration (IC50) was 1330 nM. Regarding `O=c1[nH]cnc2c(O)cc(-c3cncs3)cc12` [Example 90, 8-Hydroxy-6-(thiazol-5-yl)quinazolin-4(3H)-one], under setting [1], the IC50 turned out to be 20 nM. Take `CN(C)c1ccc(-c2cc(O)c3nc[nH]c(=O)c3c2)cn1` [Example 60, 6-(6-(Dimethylamino)pyridin-3-yl)-8-hydroxyquinazolin-4(3H)-one 1:1 salt with trifluoroacetate]: the IC50 under setting [1] was found to be 20 nM. Turning to `O=c1[nH]cnc2c(O)cc(C(O)c3ccccc3)cc12` (stereo not shown) [Example 67, 8-Hydroxy-6-(hydroxy(phenyl)methyl)quinazolin-4(3H)-one], the half-inhibitory concentration (IC50) under setting [1] is 7450 nM.

Turning to `N#Cc1c(-c2ccc(F)cc2)cc(O)c2nc[nH]c(=O)c12` [Example 54, 6-(4-Fluorophenyl)-8-hydroxy-4-oxo-3,4-dihydroquinazoline-5-carbonitrile], the IC50 under setting [1] worked out at 60 nM. Regarding `COCc1cc(COC(=O)N2CCN(C(C)C)CC2)ccc1-c1cc(O)c2nc[nH]c(=O)c2c1` [Example 109, 4-(8-Hydroxy-4-oxo-3,4-dihydroquinazolin-6-yl)-3-(methoxymethyl)benzyl 4-isopropylpiperazine-1-carboxylate bis(2,2,2-trifluoroacetate)], under setting [1], the IC50 was determined as 20 nM. `CNCCc1ccccc1-c1cc(O)c2nc[nH]c(=O)c2c1` [Example 232, 8-Hydroxy-6-(2-(2-(methylamino)ethyl)phenyl)quinazolin-4(3H)-one] returned a half-inhibitory concentration (IC50) (IC50, COMT-fluorescence assay) of 310 nM. On to `O=c1[nH]cnc2c(O)cc(-c3ccc(F)cc3)c(-c3ccnc(N4CCOCC4)c3)c12` [Example 59, 6-(4-Fluorophenyl)-8-hydroxy-5-(2-morpholinopyridin-4-yl)quinazolin-4(3H)-one], for which the concentration for half-maximal inhibition (IC50) under setting [1] was found to be 40 nM.

`CN1CCN(C(=O)c2ccccc2-c2cc(O)c3nc[nH]c(=O)c3c2)CC1` [Example 193, 8-Hydroxy-6-[2-(4-methyl-piperazine-1-carbonyl)-phenyl]-3H-quinazolin-4-one]: the IC50 under setting [1] amounted to 1280 nM.

With `N#CCc1ccccc1-c1cc(O)c2nc[nH]c(=O)c2c1` [Example 208, 2-(2-(8-Hydroxy-4-oxo-3,4-dihydroquinazolin-6-yl)phenyl)acetonitrile], the IC50 under setting [1] stood at 50 nM.

In the case of `O=c1[nH]cnc2c(O)cc(-c3cccnc3O)cc12` [Example 180, 8-Hydroxy-6-(2-hydroxypyridin-3-yl)quinazolin-4(3H)-one], the IC50 under setting [1] is 270 nM. As for `O=c1[nH]cnc2c(O)cc(Br)c(Cl)c12` [Example 117, 6-Bromo-5-chloro-8-hydroxyquinazolin-4(3H)-one], under setting [1], the IC50 was 40 nM.

Regarding `Cc1n[nH]cc1-c1cc(O)c2nc[nH]c(=O)c2c1` [Example 205, 8-Hydroxy-6-(3-methyl-1H-pyrazol-4-yl)quinazolin-4(3H)-one], the IC50 under setting [1] is 170 nM.

Turning to `Cc1ncccc1-c1cc(O)c2nc[nH]c(=O)c2c1F` [Example 198, 5-Fluoro-8-hydroxy-6-(2-methylpyridin-3-yl)quinazolin-4(3H)-one], under setting [1], the IC50 is 10 nM. On to `COCc1cc(C(=O)N2CCN(C)CC2)ccc1-c1cc(O)c2nc[nH]c(=O)c2c1` [Example 231, 8-Hydroxy-6-[2-methoxymethyl-4-(4-methyl-piperazine-1-carbonyl)-phenyl]-3H-quinazolin-4-one; compound with formic acid], for which, under setting [1], the IC50 came to 10 nM.

Regarding `CC(C)(O)c1ccccc1-c1cc(O)c2nc[nH]c(=O)c2c1` [Example 113, 8-Hydroxy-6-(2-(2-hydroxypropan-2-yl)phenyl)quinazolin-4(3H)-one], the IC50 under setting [1] is 3600 nM.

On to `O=c1[nH]cnc2c(O)cc(-c3ccc(F)cc3)c(-c3cccc(C(F)(F)F)c3)c12` [Example 53, 6-(4-Fluorophenyl)-8-hydroxy-5-(3-(trifluoromethyl)phenyl)quinazolin-4(3H)-one], for which, under setting [1], the IC50 was 20 nM. With `O=c1[nH]cnc2c(O)cc(-c3ccccc3OCc3ccccc3)cc12` [Example 227, 6-(2-(Benzyloxy)phenyl)-8-hydroxyquinazolin-4(3H)-one], under setting [1], the half-inhibitory concentration (IC50) is 50 nM. On to `O=c1[nH]cnc2c(O)cc(-c3ccc(F)cc3)c(-c3ccc(F)cc3)c12` [Example 102, 5,6-Bis(4-fluorophenyl)-8-hydroxyquinazolin-4(3H)-one], for which the IC50 under setting [1] was 1 nM.

In the case of `Cc1noc(C)c1-c1cc(O)c2nc[nH]c(=O)c2c1` [Example 78, 6-(3,5-Dimethylisoxazol-4-yl)-8-hydroxyquinazolin-4(3H)-one], the 50% inhibitory concentration (IC50) under setting [1] worked out at 320 nM. With `COc1ccc(-c2cc(O)c3nc[nH]c(=O)c3c2)cn1` [Example 163, 8-Hydroxy-6-(6-methoxypyridin-3-yl)quinazolin-4(3H)-one], under setting [1], the IC50 came to 40 nM. `Cc1cc(F)ccc1-c1cc(O)c2nc[nH]c(=O)c2c1` [Example 127, 6-(4-Fluoro-2-methylphenyl)-8-hydroxyquinazolin-4(3H)-one]: the half-inhibitory concentration (IC50) under setting [1] was found to be 20 nM. Take `O=c1[nH]cnc2c(O)c(Cl)c(Br)cc12` [Example 246, 6-Bromo-7-chloro-8-hydroxyquinazolin-4(3H)-one]: under setting [1], the IC50 worked out at 1590 nM. The same measure, in the same setting: to `COc1ncc(-c2cc(O)c3nc[nH]c(=O)c3c2)c(OC)n1` [Example 160, 6-(2,4-Dimethoxypyrimidin-5-yl)-8-hydroxyquinazolin-4(3H)-one] belongs 80 nM; to `O=c1[nH]cnc2c(O)cc(-c3cccc(N4CCCC4)n3)cc12` [Example 63, 8-Hydroxy-6-(6-(pyrrolidin-1-yl)pyridin-2-yl)quinazolin-4(3H)-one], 40 nM; to `Cc1c(-c2cc(O)c3nc[nH]c(=O)c3c2)cnn1C` [Example 206, 6-(1,5-Dimethyl-1H-pyrazol-4-yl)-8-hydroxyquinazolin-4(3H)-one], 30 nM. In the case of `Cc1c(-c2cc(O)c3nc[nH]c(=O)c3c2)c(C(F)(F)F)nn1C` [Example 95, 6-(1,5-Dimethyl-3-(trifluoromethyl)-1H-pyrazol-4-yl)-8-hydroxyquinazolin-4(3H)-one], the 50% inhibitory concentration (IC50) under setting [1] is 970 nM. On the same count and under the same terms, to `O=c1[nH]cnc2c(O)cc(-c3ccc(N4CCOCC4)nc3)cc12` [Example 182, 8-Hydroxy-6-(6-morpholinopyridin-3-yl)quinazolin-4(3H)-one] belongs 30 nM. As to `O=c1[nH]cnc2c(O)cc(-c3ccccc3C(F)(F)F)cc12` [Example 221, 8-Hydroxy-6-(2-(trifluoromethyl)phenyl)quinazolin-4(3H)-one], the half-maximal inhibitory concentration (IC50) under setting [1] is 30 nM.
